{
  "source": "patent US11504333B2",
  "about": "“Pharmaceutical composition” (NOVARTIS AG, priority 2017, dated 2022)",
  "origin": "cited, not measured here",
  "key": {"[1]": {"experiment": "not given", "remark": "listed apart in the source"}},
  "note": "Entries after “also recorded” stand apart in the source; their conditions may differ. Read-outs that look alike come from different tables or passages of the source.",
  "data": [
    {"smiles": "CC(C)(C)c1nc(-c2cccc(NS(=O)(=O)c3c(F)cccc3F)c2F)c(-c2ccnc(N)n2)s1.CS(=O)(=O)O", "note": "[Compound A, N-{3-[5-(2-Amino-4-pyrimidinyl)-2-(1,1-dimethylethyl)-1,3-thiazol-4-yl]-2-fluorophenyl}-2,6-difluorobenzenesulfonamide, methanesulfonate salt]", "values": [
      {"measurement": "Solubility (general)", "setting": "aqueous, methanesulfonate salt", "value": "low solubility; also recorded: poor aqueous solubility"},
      {"measurement": "Solubility", "setting": "slightly acidic, neutral pH, and basic media", "value": "practically insoluble"},
      {"measurement": "Solubility", "setting": "strongly acidic aqueous media", "value": "very slightly soluble"},
      {"measurement": "Permeability", "setting": "[1]", "value": "high permeability"}
    ]}
  ]
}
